We go through four compounds from PMC9491549, “Reverse mutants of the catalytic 19 kDa mutant protein (nanoKAZ/nanoLuc) from Oplophorus luciferase with coelenterazine as preferred substrate” (PLoS ONE, 2022).

In test [1] the target is T1, native Oplophorus luciferase (OpLase) (Oplophorus gracilirostris, UniProt Q9GV45).
T1 construct: 19 kDa and 35 kDa subunits, 106 kDa; with Oplophorus-luciferin 2-monooxygenase non-catalytic subunit
As to the kind of experiment: luminescence inhibition with coelenterazine. Type of test: biochemical. Conditions: coelenterazine 1.2 × 10^−4 M (so in the source); 1 μg each in 200 μL), 30 mM Tris-HCl, 10 mM EDTA, 1 min preincubation; no inhibitor = 100. The source says: luminescence inhibition with coelenterazine on native Oplophorus luciferase (OpLase)

The target of test [2] is T2, Gaussia luciferase (GLase) (Gaussia princeps (in: crustaceans), UniProt Q9BLZ2).
T2 construct: C-terminal His tag, signal peptide removed by secretion; stably expressed in CHO-K1/dhfr- cells (pcDNA3-hGL-H), Ni column
T2 sequence (Q9BLZ2 18-185): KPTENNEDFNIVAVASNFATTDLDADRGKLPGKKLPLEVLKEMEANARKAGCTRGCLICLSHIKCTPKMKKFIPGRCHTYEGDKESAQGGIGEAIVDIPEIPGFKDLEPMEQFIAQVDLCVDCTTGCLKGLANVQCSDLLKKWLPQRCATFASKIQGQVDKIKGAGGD
As to the kind of experiment: luminescence inhibition with coelenterazine. As to conditions: coelenterazine 1.2 × 10^−4 M (so in the source); 1 μg each in 200 μL), 30 mM Tris-HCl, 10 mM EDTA, 1 min preincubation; no inhibitor = 100. In kind it is biochemical. The source says:
luminescence inhibition with coelenterazine on Gaussia luciferase (GLase)

T1 sequence (Q9GV45 28-196): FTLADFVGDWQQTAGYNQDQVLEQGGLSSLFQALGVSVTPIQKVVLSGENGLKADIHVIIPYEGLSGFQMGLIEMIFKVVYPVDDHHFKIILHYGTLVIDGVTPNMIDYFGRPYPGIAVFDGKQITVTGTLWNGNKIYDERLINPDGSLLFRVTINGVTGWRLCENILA
T1 sequence (Q9GV46 40-359 partner): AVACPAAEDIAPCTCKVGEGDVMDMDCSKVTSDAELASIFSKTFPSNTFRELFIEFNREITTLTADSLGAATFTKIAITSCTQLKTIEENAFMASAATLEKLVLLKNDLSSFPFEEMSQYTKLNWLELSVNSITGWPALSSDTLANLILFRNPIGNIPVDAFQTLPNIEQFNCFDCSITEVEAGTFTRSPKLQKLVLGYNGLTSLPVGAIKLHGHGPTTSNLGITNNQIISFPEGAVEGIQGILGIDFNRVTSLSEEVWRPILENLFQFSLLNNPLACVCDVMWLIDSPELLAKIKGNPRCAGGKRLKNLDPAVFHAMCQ

As to `O=C1c2cc(-c3ccc(O)cc3)cc(Cc3ccccc3)c2C[C@H]1Cc1ccc(O)cc1` [(R)-daCTZ], the “Relative luminescence activity (Imax, %) / OpLase ^a” value in test [1] was determined as 5.1%. Further, in test [2], the “Relative luminescence activity (Imax, %) / GLase ^a” value worked out at 0.5%.

As for `O=C1c2cc(-c3ccc(O)cc3)cc(Cc3ccccc3)c2C[C@@]1(CO)Cc1ccc(O)cc1` [(R)-HM-daCTZ], the “Relative luminescence activity (Imax, %) / OpLase ^a” value in test [1] stood at 33.5%. Also, the “Relative luminescence activity (Imax, %) / GLase ^a” value in test [2] is 23.5%.

`O=C1c2cc(-c3ccc(O)cc3)cc(Cc3ccccc3)c2C[C@@H]1Cc1ccc(O)cc1` [(S)-daCTZ]: the “Relative luminescence activity (Imax, %) / OpLase ^a” value in test [1] was 2.1%. For the same compound, the “Relative luminescence activity (Imax, %) / QL-nanoKAZ ^a” value in test [2] came to 0.4%.

Take `O=C1c2cc(-c3ccc(O)cc3)cc(Cc3ccccc3)c2C[C@]1(CO)Cc1ccc(O)cc1` [(S)-HM-daCTZ]: the “Relative luminescence activity (Imax, %) / OpLase ^a” value in test [1] is 19.7%. For the same compound, the “Relative luminescence activity (Imax, %) / GLase ^a” value in test [2] is reported as 5.3%.
